Experimental data reported in patent US11339130B1 (Blade Therapeutics, Inc., priority 2016, dated 2022).

How the values were obtained:
[1] = test system: Calpain activity in SH-SY5Y cells (SBDP-150); experiment: SH-SY5Y Spectrin western blot assay (SBDP-150 breakdown product, A23187-induced); format: cell-based; details: Homo sapiens; SH-SY5Y cells, A23187-induced SBDP-150, western blot; read-out: SH-SY5Y Spectrin IC50
Human Calpain 2/NS1 = target: T1, Human Calpain 2/NS1 (Homo sapiens, UniProt P17655); experiment: Calpain inhibition continuous fluorescence (FRET) assay, Human Calpain 2/NS1; format: biochemical; details: read-out: Human Calpain 2/NS1 IC50
T1 sequence (P17655 1-700): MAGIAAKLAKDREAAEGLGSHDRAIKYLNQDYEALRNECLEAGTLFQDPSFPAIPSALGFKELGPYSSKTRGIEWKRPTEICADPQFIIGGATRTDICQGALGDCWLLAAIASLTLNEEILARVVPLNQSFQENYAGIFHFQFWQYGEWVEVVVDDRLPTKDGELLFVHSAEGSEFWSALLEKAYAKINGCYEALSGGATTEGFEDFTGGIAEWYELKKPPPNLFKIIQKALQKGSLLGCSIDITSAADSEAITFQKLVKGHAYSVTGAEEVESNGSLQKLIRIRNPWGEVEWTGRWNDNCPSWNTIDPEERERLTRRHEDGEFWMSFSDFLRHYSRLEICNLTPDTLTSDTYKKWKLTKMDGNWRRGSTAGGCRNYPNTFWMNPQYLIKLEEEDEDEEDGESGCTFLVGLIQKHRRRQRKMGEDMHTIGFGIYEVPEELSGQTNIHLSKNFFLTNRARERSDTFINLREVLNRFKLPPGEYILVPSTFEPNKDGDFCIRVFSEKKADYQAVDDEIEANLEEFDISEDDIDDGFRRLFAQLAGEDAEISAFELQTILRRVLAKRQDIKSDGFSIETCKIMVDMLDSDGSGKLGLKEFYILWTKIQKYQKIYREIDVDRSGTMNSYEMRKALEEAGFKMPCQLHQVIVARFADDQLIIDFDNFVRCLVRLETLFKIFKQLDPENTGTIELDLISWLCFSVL
T1 sequence (P04632 1-268 partner): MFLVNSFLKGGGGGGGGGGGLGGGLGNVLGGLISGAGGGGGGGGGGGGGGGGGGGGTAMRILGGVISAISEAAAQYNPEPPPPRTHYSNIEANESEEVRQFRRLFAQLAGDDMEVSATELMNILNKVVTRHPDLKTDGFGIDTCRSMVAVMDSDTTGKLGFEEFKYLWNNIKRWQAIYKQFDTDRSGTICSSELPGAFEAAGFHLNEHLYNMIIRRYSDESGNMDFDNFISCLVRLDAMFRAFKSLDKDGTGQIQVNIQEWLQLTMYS
Outline: (§1)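 Calpain activity is measured kinetically with a quenched FRET peptide in 50 mM Tris pH 7.5, 100 mM NaCl, 1 mM DTT, with CaCl2 triggering activation. Rates over 1-5 min are plotted against log inhibitor to obtain IC50 by 4-parameter logistic fitting.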

Human Calpain 9/NS1 = target: T2, Human Calpain 9/NS1 (Homo sapiens, UniProt O14815); experiment: Calpain inhibition continuous fluorescence (FRET) assay, Human Calpain 9/NS1; format: biochemical; details: read-out: Human Calpain 9/NS1 IC50
T2 sequence (O14815 1-690): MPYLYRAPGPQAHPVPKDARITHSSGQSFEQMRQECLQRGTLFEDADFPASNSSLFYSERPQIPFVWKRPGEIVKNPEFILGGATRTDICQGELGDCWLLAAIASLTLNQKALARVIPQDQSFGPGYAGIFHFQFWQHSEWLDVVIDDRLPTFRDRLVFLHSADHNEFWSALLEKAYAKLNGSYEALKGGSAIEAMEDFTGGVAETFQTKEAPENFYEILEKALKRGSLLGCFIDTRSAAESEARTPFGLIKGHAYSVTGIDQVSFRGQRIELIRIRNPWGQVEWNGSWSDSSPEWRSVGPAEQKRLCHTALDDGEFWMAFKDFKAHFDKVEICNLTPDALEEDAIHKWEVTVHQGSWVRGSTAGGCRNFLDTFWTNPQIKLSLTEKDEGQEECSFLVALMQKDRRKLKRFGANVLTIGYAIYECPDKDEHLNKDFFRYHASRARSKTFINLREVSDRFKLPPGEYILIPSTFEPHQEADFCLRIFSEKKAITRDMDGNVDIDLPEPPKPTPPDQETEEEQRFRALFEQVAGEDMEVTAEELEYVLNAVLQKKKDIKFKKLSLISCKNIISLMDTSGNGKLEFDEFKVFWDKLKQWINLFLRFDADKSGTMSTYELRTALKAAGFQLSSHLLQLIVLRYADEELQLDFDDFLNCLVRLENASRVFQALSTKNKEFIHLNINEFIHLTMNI
T2 sequence (P04632 1-268 partner): T1 sequence (P04632 1-268 partner)
Outline: as §1

Human Calpain 1/NS1 = target: T3, Human Calpain 1/NS1 (Homo sapiens, UniProt P07384); experiment: Calpain inhibition continuous fluorescence (FRET) assay, Human Calpain 1/NS1; format: biochemical; details: read-out: Human Calpain 1/NS1 IC50
T3 sequence (P07384 1-714): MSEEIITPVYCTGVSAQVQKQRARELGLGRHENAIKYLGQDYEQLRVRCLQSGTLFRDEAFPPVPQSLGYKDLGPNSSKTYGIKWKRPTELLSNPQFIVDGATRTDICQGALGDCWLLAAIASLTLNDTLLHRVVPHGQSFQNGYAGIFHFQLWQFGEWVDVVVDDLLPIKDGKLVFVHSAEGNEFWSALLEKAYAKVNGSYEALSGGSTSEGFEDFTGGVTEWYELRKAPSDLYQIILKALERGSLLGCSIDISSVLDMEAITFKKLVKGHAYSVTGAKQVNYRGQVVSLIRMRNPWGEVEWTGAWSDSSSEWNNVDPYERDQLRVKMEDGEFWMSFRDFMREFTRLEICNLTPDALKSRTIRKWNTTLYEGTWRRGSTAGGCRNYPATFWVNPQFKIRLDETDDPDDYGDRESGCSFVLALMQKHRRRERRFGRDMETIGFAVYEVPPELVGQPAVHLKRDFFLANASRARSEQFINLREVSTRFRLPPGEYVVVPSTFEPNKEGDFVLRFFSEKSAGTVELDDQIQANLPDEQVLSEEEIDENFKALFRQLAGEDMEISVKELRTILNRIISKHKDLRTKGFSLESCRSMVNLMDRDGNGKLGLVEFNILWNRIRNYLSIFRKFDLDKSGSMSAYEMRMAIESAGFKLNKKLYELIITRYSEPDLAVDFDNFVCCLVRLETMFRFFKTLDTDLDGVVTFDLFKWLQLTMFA
T3 sequence (P04632 1-268 partner): T1 sequence (P04632 1-268 partner)
Outline: as §1

[2] = test system: Calpain activity in SH-SY5Y cells; experiment: SH-SY5Y + AMC fluorescence assay (Suc-LLVY-AMC substrate); format: cell-based; details: read-out: SH-SY5Y + AMC IC50

Compound | IC50 [1] | IC50 (Human Calpain 2/NS1) | IC50 (Human Calpain 9/NS1) | IC50 (Human Calpain 1/NS1) | IC50 [2]
NC(=O)C(=O)C(Cc1ccccc1)NC(=O)c1cc(C(F)(F)F)nn1-c1ncccn1 (centres unmarked) [Compound 349, N-(4-amino-3,4-dioxo-1-phenylbutan-2-yl)-1-(pyrimidin-2-yl)-3-(trifluoromethyl)-1H-pyrazole-5-carboxamide] | > 25 µM | < 3 µM | < 3 µM | < 3 µM | < 10 µM
NC(=O)C(=O)C(Cc1ccccc1)NC(=O)c1cc(Cl)nn1-c1ncccn1 (centres unmarked) [Compound 350, N-(4-amino-3,4-dioxo-1-phenylbutan-2-yl)-3-chloro-1-(pyrimidin-2-yl)-1H-pyrazole-5-carb oxamide] | 10 to 25 µM | < 3 µM | < 3 µM | < 3 µM | < 10 µM
Cc1cc(C(=O)NC(Cc2ccccc2)C(=O)C(N)=O)n(-c2ncccn2)n1 (centres unmarked) [Compound 351, N-(4-amino-3,4-dioxo-1-phenylbutan-2-yl)-3-methyl-1-(pyrimidin-2-yl)-1H-pyrazole-5-carb oxamide] | 10 to 25 µM | < 3 µM | < 3 µM | < 3 µM | < 10 µM
Cc1cc(C(=O)NC(Cc2ccccc2)C(=O)C(N)=O)n(-c2ccnc(C3CC3)n2)n1 (centres unmarked) [Compound 352, N-(4-amino-3,4-dioxo-1-phenylbutan-2-yl)-1-(2-cyclopropylpyrimidin-4-yl)-3-methyl-1H-pyrazole-5-carboxamide] | > 25 µM | < 3 µM | < 3 µM | < 3 µM | 10 to 25 µM
Cc1nc(-c2cccc(F)c2)c(C(=O)N[C@H](C=O)Cc2ccccc2)o1 [Compound 353, (S)-4-(3-fluorophenyl)-2-methyl-N-(1-oxo-3-phenylpropan-2-yl)oxazole-5-carboxamide] | 10 to 25 µM | < 3 µM | < 3 µM | < 3 µM | > 25 µM
Cc1nc(-c2cnc3ccccc3n2)c(C(=O)NC(Cc2ccccc2)C(=O)C(N)=O)o1 (centres unmarked) [Compound 356, N-(4-amino-3,4-dioxo-1-phenylbutan-2-yl)-2-methyl-4-(quinoxalin-2-yl)oxazole-5-carboxamide] | > 25 µM | < 3 µM | < 3 µM | < 3 µM | > 25 µM
NC(=O)C(=O)C(Cc1ccccc1)NC(=O)c1oc(C(F)(F)F)nc1-c1ccccc1F (centres unmarked) [Compound 358, N-(4-amino-3,4-dioxo-1-phenylbutan-2-yl)-4-(2-fluorophenyl)-2-(trifluoromethyl)oxazole-5-carboxamide] | 10 to 25 µM | < 3 µM | < 3 µM | < 3 µM | < 10 µM
Cc1nc(-c2ccccc2)c(C(=O)N[C@@H](Cc2ccccc2)C(O)C(N)=O)o1 (stereo partly drawn) [Compound 360, N-((2S)-4-amino-3-hydroxy-4-oxo-1-phenylbutan-2-yl)-2-methyl-4-phenyloxazole-5-carboxamide] | > 25 µM | > 10 µM | > 10 µM | > 10 µM | > 25 µM

Further lines, results first:

IC50 [1] | IC50 (Human Calpain 2/NS1) | IC50 (Human Calpain 9/NS1) | IC50 (Human Calpain 1/NS1) | IC50 [2] | Compound
< 10 µM | < 3 µM | < 3 µM | < 3 µM | < 10 µM | Cc1nc(-c2ccccc2)c(C(=O)N[C@@H](Cc2ccc(O)cc2)C(=O)C(N)=O)o1 [Compound 354]
< 10 µM | < 3 µM | < 3 µM | < 3 µM | < 10 µM | Cc1nc(-c2cccc(F)c2F)c(C(=O)NC(Cc2ccccc2)C(=O)C(N)=O)o1 (centres unmarked) [Compound 361, N-(4-amino-3,4-dioxo-1-phenylbutan-2-yl)-4-(2,3-difluorophenyl)-2-methyloxazole-5-carboxamide]
< 10 µM | < 3 µM | < 3 µM | < 3 µM | > 25 µM | C#CCOCc1ccc(-c2nsnc2C(=O)N[C@@H](Cc2ccccc2)C(=O)CF)cc1 [Compound 362, (S)—N-(4-fluoro-3-oxo-1-phenylbutan-2-yl)-4-(4-((prop-2-yn-1-yloxy)methyl)phenyl)-1,2,5-thiadiazole-3-carboxamide]
< 10 µM | < 3 µM | < 3 µM | < 3 µM | > 25 µM | NC(=O)C(=O)C(Cc1ccccc1)NC(=O)c1nsnc1-c1ccc(CNC(=O)c2ccc(F)cc2)cc1 (centres unmarked) [Compound 363, N-(4-amino-3,4-dioxo-1-phenylbutan-2-yl)-4-(4-((4-fluorobenzamido)methyl)phenyl)-1,2,5-thiadiazole-3-carboxamide]
< 10 µM | < 3 µM | < 3 µM | < 3 µM | < 10 µM | NC(=O)C(=O)C(Cc1ccccc1)NC(=O)c1nsnc1-c1cnccn1 (centres unmarked) [Compound 365, N-(4-amino-3,4-dioxo-1-phenylbutan-2-yl)-4-(pyrazin-2-yl)-1,2,5-thiadiazole-3-carboxamide]
10 to 25 µM | < 3 µM | < 3 µM | < 3 µM | < 10 µM | NC(=O)C(=O)C(Cc1ccccc1)NC(=O)c1nsnc1Br (centres unmarked) [Compound 366, N-(4-amino-3,4-dioxo-1-phenylbutan-2-yl)-4-bromo-1,2,5-thiadiazole-3-carboxamide]
< 10 µM | < 3 µM | < 3 µM | < 3 µM | < 10 µM | NC(=O)C(=O)C(Cc1ccccc1)NC(=O)c1nsnc1-c1cccc2c1OCO2 (centres unmarked) [Compound 367, N-(4-amino-3,4-dioxo-1-phenylbutan-2-yl)-4-(benzo[d][1,3]dioxol-4-yl)-1,2,5-thiadiazole-3-carboxamide]
10 to 25 µM | < 3 µM | < 3 µM | < 3 µM | > 25 µM | NC(=O)C(=O)C(Cc1ccccc1)NC(=O)c1nsnc1-c1cccc(COCc2ccccc2)c1 (centres unmarked) [Compound 370, N-(4-amino-3,4-dioxo-1-phenylbutan-2-yl)-4-(3-((benzyloxy)methyl)phenyl)-1,2,5-thiadiazole-3-carboxamide]
